This passage reports IC50 results from patent publication US11266643B2, “Triaryl compounds for treatment of PD-L1 diseases” (CHEMOCENTRYX, INC., priority 2019, dated 2022).

A word on the IC50: it is the concentration that inhibits the measured activity by half. Low readings indicate greater potency, high ones weaker potency.

Sequence of human PD-L1 (Q9NZQ7 19-239): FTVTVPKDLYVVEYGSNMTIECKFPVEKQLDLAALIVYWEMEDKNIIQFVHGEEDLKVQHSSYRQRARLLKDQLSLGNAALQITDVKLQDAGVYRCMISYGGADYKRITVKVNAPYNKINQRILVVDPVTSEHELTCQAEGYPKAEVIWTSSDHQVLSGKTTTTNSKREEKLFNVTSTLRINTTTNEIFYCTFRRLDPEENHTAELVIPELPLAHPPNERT

In this experiment the target is human PD-L1 (Homo sapiens (Human), UniProt Q9NZQ7). The experiment can be described thus: Enzyme-Linked Immunosorbent Assay (ELISA), PD-1/PD-L1 binding. The following applies: human PD-1/PD-L1 ELISA, plates coated with human PD-L1. On the procedure:
96 Well plates were coated with […] of human PD-L1 (obtained from R&D) in PBS overnight at 4° C. The wells were then blocked with 2% BSA in PBS (W/V) with 0.05% TWEEN-20 for 1 hour at 37° C. The plates were washed 3 times with PBS/0.05% TWEEN-20 and the compounds were serial diluted (1:5) in dilution medium and added to the ELISA plates. Human PD-1 […] 0.31 μg/mL (ACRO Biosystems) were added and incubated for 1 hour at 37° C. then washed 3 times with PBS/0.05% TWEEN-20. A second block was performed with 2% BSA in PBS (W/V)/0.05% TWEEN-20 for 10 min at 37° C. and the plates were washed 3 times with PBS/0.05% TWEEN-20. Streptavidin-HRP was added for 1 hour at 37° C. then the plates were washed 3 times with PBS/0.05% TWEEN-20. TMB substrate was added and reacted for 20 min at 37° C. A stop solution (2 N aqueous H2SO4) was added. The absorbance was read at 450 nm using a micro-plate spectrophotometer.
Using the methods described in the Examples above, the compounds in Table 2 were prepared & tested for biological activity using the ELISA method described above.
Background: In an ELISA, binding on a coated surface is turned into a signal by an enzyme label.
Consider `COc1cc(-c2cccc(-c3cccc(NC(=O)c4c[nH]c(=O)n(C)c4=O)c3C)c2C)cc(F)c1CNCC[C@@H]1CCC(=O)N1` [Example 1.109], for which the IC50 is < 10 nM. On to `COc1cc(-c2cccc(-c3cccc(NC(=O)c4cn(C)c(=O)n(C)c4=O)c3C)c2C)cc(F)c1CN[C@H]1CCC(=O)NC1` [Example 1.110], for which the IC50 is < 10 nM.

Turning to `COc1cc(-c2cccc(-c3cccc(NC(=O)c4c[nH]c(=O)n(C)c4=O)c3C)c2C)cc(F)c1CN[C@@H]1CCOC[C@@H]1O` [Example 1.111], the IC50 is < 10 nM. Compound `COc1cc(-c2cccc(-c3cccc(NC(=O)c4cn(C)c(=O)n(C)c4=O)c3C)c2C)cc(F)c1CNCc1ccnn1C` [Example 1.112] returned an IC50 of 10 to 1000 nM. In the case of `COc1cc(-c2cccc(-c3cccc(NC(=O)c4cncn(C)c4=O)c3C)c2C)cc(F)c1CNCc1c[nH]c(=O)[nH]c1=O` [Example 1.113], the IC50 is < 10 nM. For `COc1cc(-c2cccc(-c3cccc(NC(=O)c4cn(C)c(=O)n(C)c4=O)c3C)c2C)cc(F)c1CNCCC(N)=O` [Example 1.114] the value was < 10 nM; for `COc1cc(-c2cccc(-c3cccc(NC(=O)c4cn(C)c(=O)n(C)c4=O)c3C)c2C)cc(F)c1CNCCC1CCC(=O)N1` (stereo not shown) [Example 1.115], < 10 nM. The result for `COc1cc(-c2cccc(-c3cccc(Nc4nccc5nccnc45)c3C)c2C)cc(F)c1CNCc1ccn[nH]1` [Example 1.116] reads 10 to 1000 nM. `COc1cc(-c2cccc(-c3cccc(NC(=O)c4cccn(C)c4=O)c3C)c2C)cc(F)c1CN[C@@H]1CCC[C@H]1O` [Example 1.117]: the IC50 was < 10 nM. On to `COc1cc(-c2cccc(-c3cccc(NC(=O)c4cn(C)c(=O)n(C)c4=O)c3C)c2C)cc(F)c1CNCCN1CCCC1=O` [Example 1.118], for which the IC50 is < 10 nM.

The compound `COc1cc(-c2cccc(-c3cccc(NC(=O)c4c[nH]c(=O)n(C)c4=O)c3C)c2C)cc(F)c1CNCc1ncc[nH]1` [Example 1.119] returned an IC50 of 10 to 1000 nM. `COc1cc(-c2cccc(-c3cccc(NC(=O)c4c[nH]c(=O)n(C)c4=O)c3C)c2C)cc(F)c1CNCc1noc(=O)[nH]1` [Example 1.120] showed an IC50 of 10 to 1000 nM. `COc1cc(-c2cccc(-c3cccc(NC(=O)c4cn(C)c(=O)n(C)c4=O)c3C)c2C)cc(F)c1CNC1CC(=O)NC1=O` (stereo not shown) [Example 1.121] had an IC50 of 10 to 1000 nM. On to `COc1cc(-c2cccc(-c3cccc(Nc4nccc5nccnc45)c3C)c2C)cc(F)c1CNC1CCOCC1` [Example 1.123], for which the IC50 was < 10 nM. With `COc1cc(-c2cccc(-c3cccc(Nc4nccc5nccnc45)c3C)c2C)cc(F)c1CN[C@H]1CCNC1=O` [Example 1.125], the IC50 fell in the range of 10 to 1000 nM. For the compound `COc1cc(-c2cccc(-c3cccc(NC(=O)c4cn(C)c(=O)n(C)c4=O)c3C)c2C)cc(F)c1CN(C)[C@H]1CNC(=O)C1` [Example 1.126], the IC50 was 10 to 1000 nM.

With `COc1cc(-c2cccc(-c3cccc(NC(=O)c4cn(C)c(=O)n(C)c4=O)c3C)c2C)cc(F)c1CN[C@H]1CNC(=O)C1` [Example 1.127], the IC50 is < 10 nM. The result for `COc1cc(-c2cccc(-c3cccc(NC(=O)c4c[nH]c(=O)n(C)c4=O)c3C)c2C)cc(F)c1CNCCC(N)=O` [Example 1.128] reads < 10 nM; that for `COc1cc(-c2cccc(-c3cccc(NC(=O)c4cn(C)c(=O)n(C)c4=O)c3C)c2C)cc(F)c1CN[C@H]1CCC[C@@H]1O` [Example 1.129], < 10 nM; that for `COc1cc(-c2cccc(-c3cccc(Nc4nccc5nccnc45)c3C)c2C)cc(F)c1CN[C@@H]1CCNC1=O` [Example 1.130], 10 to 1000 nM. With `COc1cc(-c2cccc(-c3cccc(NC(=O)c4c[nH]c(=O)n(C)c4=O)c3C)c2C)cc(F)c1CNCCN1CCCC1=O` [Example 1.131], the IC50 is < 10 nM. The compound `COc1cc(-c2cccc(-c3cccc(NC(=O)c4cncn(C)c4=O)c3C)c2C)cc(F)c1CN(C)C[C@H]1CCC(=O)N1` [Example 1.132] yielded an IC50 of 10 to 1000 nM.

Take `COc1cc(-c2cccc(-c3cccc(NC(=O)c4cn(C)c(=O)n(C)c4=O)c3C)c2C)cc(F)c1CNC(C)(C)CO` [Example 1.133]: the IC50 was < 10 nM.

In the case of `COc1cc(-c2cccc(-c3cccc(NC(=O)c4c[nH]c(=O)n(C)c4=O)c3C)c2C)cc(F)c1CNCc1ccn[nH]1` [Example 1.134], the IC50 was < 10 nM. For `COc1cc(-c2cccc(-c3cccc(NC(=O)c4c[nH]c(=O)n(C)c4=O)c3C)c2C)cc(F)c1CN[C@H]1CCNC1=O` [Example 1.135] the value was 10 to 1000 nM; for `COc1cc(-c2cccc(-c3cccc(NC(=O)c4cn(C)c(=O)n(C)c4=O)c3C)c2C)cc(F)c1CN[C@@H]1CCC[C@H]1O` [Example 1.137], < 10 nM; for `COc1cc(-c2cccc(-c3cccc(NC(=O)c4c[nH]c(=O)n(C)c4=O)c3C)c2C)cc(F)c1CN[C@@H]1CCNC1=O` [Example 1.138], 10 to 1000 nM. On to `COc1cc(-c2cccc(-c3cccc(NC(=O)c4cncn(C)c4=O)c3C)c2C)cc(F)c1CNC1CCOC1` (stereo not shown) [Example 1.139], for which the IC50 was < 10 nM.

For `COc1cc(-c2cccc(-c3cccc(NC(=O)c4cncn(C)c4=O)c3C)c2C)cc(F)c1CNCC1(O)CC1` [Example 1.140], the IC50 was < 10 nM. For `COc1cc(-c2cccc(-c3cccc(NC(=O)c4c[nH]c(=O)n(C)c4=O)c3C)c2C)cc(F)c1CNCCC1CCC(=O)N1` (stereo not shown) [Example 1.141] the value was < 10 nM; for `COc1cc(-c2cccc(-c3cccc(NC(=O)c4cccn(C)c4=O)c3C)c2C)cc(F)c1CN[C@H]1CNC(=O)C1` [Example 1.142], < 10 nM; for `COc1cc(-c2cccc(-c3cccc(NC(=O)c4c[nH]c(=O)n(C)c4=O)c3C)c2C)cc(F)c1CN[C@H]1CNC(=O)C1` [Example 1.143], < 10 nM. With `COc1cc(-c2cccc(-c3cccc(Nc4nccc5nccnc45)c3C)c2C)cc(F)c1CN[C@H]1CCC[C@@H]1O` [Example 1.144], the IC50 is < 10 nM.

For `COc1cc(-c2cccc(-c3cccc(NC(=O)c4cccn(C)c4=O)c3C)c2C)cc(F)c1CNC[C@H]1CCC(=O)N1` [Example 1.145], the IC50 is < 10 nM. As to `COc1cc(-c2cccc(-c3cccc(NC(=O)c4cn(C)c(=O)n(C)c4=O)c3C)c2C)cc(F)c1CNCc1cn(C)c(=O)n(C)c1=O` [Example 1.146], the IC50 is < 10 nM. For `COc1cc(-c2cccc(-c3cccc(NC(=O)c4cn(C)c(=O)n(C)c4=O)c3C)c2C)cc(F)c1CN[C@H]1CCC[C@H]1O` [Example 1.147], the IC50 was < 10 nM. The result for `COc1cc(-c2cccc(-c3cccc(NC(=O)c4cn(C)c(=O)n(C)c4=O)c3C)c2C)cc(F)c1CN(C)[C@@H]1CNC(=O)C1` [Example 1.148] reads < 10 nM; that for `COc1cc(-c2cccc(-c3cccc(NC(=O)c4cn(C)c(=O)n(C)c4=O)c3C)c2C)cc(F)c1CNCc1c[nH]c(=O)[nH]c1=O` [Example 1.149], < 10 nM; that for `COc1cc(-c2cccc(-c3cccc(NC(=O)c4cccn(C)c4=O)c3C)c2C)cc(F)c1CNC(C)(C)CO` [Example 1.150], < 10 nM. On to `COc1cc(-c2cccc(-c3cccc(NC(=O)c4cncn(C)c4=O)c3C)c2C)cc(F)c1CNC(C)(C)CO` [Example 1.151], for which the IC50 is < 10 nM.

Regarding `COc1cc(-c2cccc(-c3cccc(NC(=O)c4cn(C)c(=O)n(C)c4=O)c3C)c2C)cc(F)c1CN(C)C[C@H]1CCC(=O)N1` [Example 1.152], the IC50 fell in the range of 10 to 1000 nM. Regarding `COc1cc(-c2cccc(-c3cccc(Nc4nccc5nccnc45)c3C)c2C)cc(F)c1CN[C@H]1CNC(=O)C1` [Example 1.153], the IC50 is < 10 nM. Turning to `COc1cc(-c2cccc(-c3cccc(NC(=O)c4cncn(C)c4=O)c3C)c2C)cc(F)c1CN[C@H]1CNC(=O)C1` [Example 1.154], the IC50 was < 10 nM. With `COc1cc(-c2cccc(-c3cccc(NC(=O)c4cn(C)c(=O)n(C)c4=O)c3C)c2C)cc(F)c1CNC[C@H]1CCC(=O)N1` [Example 1.155], the IC50 is < 10 nM. The result for `COc1cc(-c2cccc(-c3cccc(NC(=O)c4cccn(C)c4=O)c3C)c2C)cc(F)c1CNC[C@@H]1CCC(=O)N1C` [Example 1.156] reads < 10 nM; that for `COc1cc(-c2cccc(-c3cccc(NC(=O)c4cccn(C)c4=O)c3C)c2C)cc(F)c1CNC[C@@H]1CCC(=O)N1` [Example 1.157], < 10 nM; that for `COc1cc(-c2cccc(-c3cccc(NC(=O)c4c[nH]c(=O)n(C)c4=O)c3C)c2C)cc(F)c1CNC[C@H]1CCC(=O)N1` [Example 1.158], < 10 nM.

Turning to `COc1cc(-c2cccc(-c3cccc(Nc4nccc5nccnc45)c3C)c2C)cc(F)c1CNC[C@H]1CCC(=O)N1` [Example 1.159], the IC50 is < 10 nM. On to `COc1cc(-c2cccc(-c3cccc(NC(=O)c4cncn(C)c4=O)c3C)c2C)cc(F)c1CN[C@@H]1CCC[C@H]1O` [Example 1.160], for which the IC50 is < 10 nM.

With `COc1cc(-c2cccc(-c3cccc(NC(=O)c4cncn(C)c4=O)c3C)c2C)cc(F)c1CN[C@H]1CCC[C@H]1O` [Example 1.161], the IC50 was < 10 nM. For `COc1cc(-c2cccc(-c3cccc(NC(=O)c4cn(C)c(=O)n(C)c4=O)c3C)c2C)cc(F)c1CNC1CCOC1` (stereo not shown) [Example 1.162] the value was < 10 nM; for `COc1cc(-c2cccc(-c3cccc(NC(=O)c4cccn(C)c4=O)c3C)c2C)cc(F)c1CN(C)CCO` [Example 1.164], < 10 nM.
